Columns and labels:
SETVI (Foxtail, Green) [1] = experiment: Postemergence herbicidal evaluation; type: in vivo, Setaria viridis; details: postemergence
How it was run: (§1)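 Visual 0–9 rating versus control (stand, vigor, malformation, size, chlorosis, overall appearance), taken four to five weeks post-spray. Two-week-old seedlings received roughly 0.0156–0.500 kg/ha active in acetone/water (50/50) with 0.5% TWEEN 20 via nozzle at 40 psi.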

ORYSAT (Rice, Tebonnet) = experiment: Postemergence herbicidal evaluation; type: in vivo, Oryza sativa, (L.) Tebonnet; details: postemergence
How it was run: as §1

ZEAMX (Corn, Field) [2] = experiment: Postemergence herbicidal evaluation; type: in vivo, Zea mays; details: postemergence
How it was run: as §1

ECHCG (Barnyardgrass) = experiment: Preemergence herbicidal evaluation; type: in vivo, Echinochloa crus-galli; details: rated 4-5 weeks after treatment
How it was run: (§2)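 Each species is sown separately in potting soil over roughly an inch of soil before any emergence. The soil surface then receives an aqueous acetone spray delivering about 0.0156 to 0.500 kg/ha of compound. After four to five weeks, injury is scored from 0 to 9 relative to a control.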

SETVI (Foxtail, Green) [3] = experiment: Preemergence herbicidal evaluation; type: in vivo, Setaria viridis; details: rated 4-5 weeks after treatment
How it was run: as §2

[4] = test system: TRZAWR (Wheat, Winter, cv Riband); experiment: Preemergence herbicidal evaluation; type: in vivo, Triticum aestivum; details: rated 4-5 weeks after treatment
How it was run: as §2

ZEAMX (Corn, Field) [5] = experiment: Preemergence herbicidal evaluation; type: in vivo, Zea mays; details: rated 4-5 weeks after treatment
How it was run: as §2

[6] = test system: ECHORC (Watergrass (Calif.)); experiment: Preemergence weed control under flooded paddy conditions; type: in vivo, Echinochloa oryzoides; details: rated 3-4 weeks after treatment
How it was run: (§3)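 Ratings on a 0-9 visual scale cover stand, vigor, malformation, size, chlorosis and overall appearance relative to a control, taken three to four weeks post-treatment. Application was into flood water over freshly sown silt loam at roughly 0.0313 to 0.500 kg/ha.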

CYPIR (Rice Flatsedge) [7] = experiment: as above; type: in vivo, Cyperus iria; details: rated 3-4 weeks after treatment
How it was run: as §3

CYPSE (Flatsedge) [8] = experiment: as above; type: in vivo, Cyperus serotinus; details: rated 3-4 weeks after treatment
How it was run: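 Values are visual 0-9 scores against a control for a preemergence application into paddy flood water at about 0.0313 to 0.500 kg/ha. Greenhouse duration was three to four weeks.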

[9] = test system: ECHORC (Watergrass (Calif.)); experiment: Postemergence weed control under flooded paddy conditions; type: in vivo, Echinochloa oryzoides; details: postemergence weeds, rated 3 to 4 weeks after treatment
How it was run: (§4)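 Flood-water application, about 0.0313–0.500 kg/ha a.i. in aqueous/acetone 50/50 v/v; water depth 1.5–3 cm throughout. Weeds 3–5 cm, rice 1.5–2.5 leaf. Greenhouse; 0–9 visual rating vs control at 3–4 wk.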

CYPIR (Rice Flatsedge) [10] = experiment: as above; type: in vivo, Cyperus iria; details: postemergence weeds, rated 3 to 4 weeks after treatment
How it was run: as §4

CYPSE (Flatsedge) [11] = experiment: as above; type: in vivo, Cyperus serotinus; details: postemergence weeds, rated 3 to 4 weeks after treatment
How it was run: as §4

[12] = test system: SAGPY (Arrowhead (Pygmaea)); experiment: as above; type: in vivo, Sagittaria pygmaea; details: postemergence weeds, rated 3 to 4 weeks after treatment
Excerpt: Results of herbicide evaluation are expressed on a rating scale (0-9). The scale is based upon a visual observation of plant stand, vigor, malformation, size, chlorosis and overall plant appearance as compared with a control.
Plastic containers containing weeds which are 3 to 5 cm tall and rice seedlings at the 1.5 to 2.5 leaf stage are flooded with water. The water is maintained at 1.5 to 3 cm above the soil surface for the duration of the experiment. Test compounds are applied as aqueous/ acetone mixtures 50/50 v/v directly into the flood water to provide the equivalent of about 0.0313 to 0.500 kg/ha of active ingredient. The treated containers are placed on greenhouse benches and cared for in accordance with conventional greenhouse procedures. Three to four weeks after treatment, the test is terminated and each container is examined and herbicidal effect rated according to the rating system provided in Example 37. The compounds evaluated are reported by compound number given in Example 37.

Question: Which results are given for `CCOC(=O)C(c1ccc(Cl)cc1)N1C(=O)CSC1=Nc1cc(-n2c(=O)cc(C(F)(F)F)n(C)c2=O)c(F)cc1Cl` (racemic) [Compound 79, Ethyl α-(p-chlorophenyl)-2-{{2-chloro-5-[3,6-dihydro-3-methyl-2,6-dioxo-4-(trifluoromethyl)-1(2H)-pyrimidinyl]-4-fluorophenyl}imino}-4-oxo-3-thiazolidineacetate, DL-]?
Answer: SETVI herbicidal rating (SETVI (Foxtail, Green) [1]; rate 0.0158 kg/ha): 4.0; SETVI herbicidal rating (SETVI (Foxtail, Green) [1]; rate 0.0315 kg/ha): 1.0; SETVI herbicidal rating (SETVI (Foxtail, Green) [1]; rate 0.0630 kg/ha): 1.0; ORYSAT herbicidal rating (ORYSAT (Rice, Tebonnet); rate 0.0158 kg/ha): 2.5; ORYSAT herbicidal rating (ORYSAT (Rice, Tebonnet); rate 0.0315 kg/ha): 2.5; ORYSAT herbicidal rating (ORYSAT (Rice, Tebonnet); rate 0.0630 kg/ha): 4.0; ZEAMX herbicidal rating (ZEAMX (Corn, Field) [2]; rate 0.0158 kg/ha): 5.0; ZEAMX herbicidal rating (ZEAMX (Corn, Field) [2]; rate 0.0315 kg/ha): 4.5; ZEAMX herbicidal rating (ZEAMX (Corn, Field) [2]; rate 0.0630 kg/ha): 5.0; Preemergence herbicidal rating ECHCG (ECHCG (Barnyardgrass); rate 0.0313 kg/ha): 0.0; Preemergence herbicidal rating ECHCG (ECHCG (Barnyardgrass); rate 0.0625 kg/ha): 0.0; Preemergence herbicidal rating ECHCG (ECHCG (Barnyardgrass); rate 0.1250 kg/ha): 0.0; Preemergence herbicidal rating ECHCG (ECHCG (Barnyardgrass); rate 0.2500 kg/ha): 0.0; Preemergence herbicidal rating SETVI (SETVI (Foxtail, Green) [3]; rate 0.0313 kg/ha): 1.0; Preemergence herbicidal rating SETVI (SETVI (Foxtail, Green) [3]; rate 0.0625 kg/ha): 1.0; Preemergence herbicidal rating SETVI (SETVI (Foxtail, Green) [3]; rate 0.1250 kg/ha): 1.0; Preemergence herbicidal rating SETVI (SETVI (Foxtail, Green) [3]; rate 0.2500 kg/ha): 4.0; Preemergence herbicidal rating TRZAWR ([4]; rate 0.0313 kg/ha): 0.0; Preemergence herbicidal rating TRZAWR ([4]; rate 0.0625 kg/ha): 1.0; Preemergence herbicidal rating TRZAWR ([4]; rate 0.1250 kg/ha): 0.0; Preemergence herbicidal rating TRZAWR ([4]; rate 0.2500 kg/ha): 1.0; Preemergence herbicidal rating ZEAMX (ZEAMX (Corn, Field) [5]; rate 0.0313 kg/ha): 1.0; Preemergence herbicidal rating ZEAMX (ZEAMX (Corn, Field) [5]; rate 0.0625 kg/ha): 1.0; Preemergence herbicidal rating ZEAMX (ZEAMX (Corn, Field) [5]; rate 0.1250 kg/ha): 1.0; Preemergence herbicidal rating ZEAMX (ZEAMX (Corn, Field) [5]; rate 0.2500 kg/ha): 2.0; ECHORC herbicidal effect rating ([6]; 0.0313 kg/ha): 5.0; ECHORC herbicidal effect rating ([6]; 0.0625 kg/ha): 6.0; ECHORC herbicidal effect rating ([6]; 0.1250 kg/ha): 7.0; ECHORC herbicidal effect rating ([6]; 0.2500 kg/ha): 8.0; CYPIR herbicidal effect rating (CYPIR (Rice Flatsedge) [7]; 0.0313 kg/ha): 0.0; CYPIR herbicidal effect rating (CYPIR (Rice Flatsedge) [7]; 0.0625 kg/ha): 0.0; CYPIR herbicidal effect rating (CYPIR (Rice Flatsedge) [7]; 0.1250 kg/ha): 2.0; CYPIR herbicidal effect rating (CYPIR (Rice Flatsedge) [7]; 0.2500 kg/ha): 6.0; CYPSE herbicidal effect rating (CYPSE (Flatsedge) [8]; 0.0313 kg/ha): 0.0; CYPSE herbicidal effect rating (CYPSE (Flatsedge) [8]; 0.0625 kg/ha): 0.0; CYPSE herbicidal effect rating (CYPSE (Flatsedge) [8]; 0.1250 kg/ha): 0.0; CYPSE herbicidal effect rating (CYPSE (Flatsedge) [8]; 0.2500 kg/ha): 9.0; Herbicidal rating ECHORC ([9]; Rate 0.0313 kg/ha): 5.0; Herbicidal rating ECHORC ([9]; Rate 0.0625 kg/ha): 6.0; Herbicidal rating ECHORC ([9]; Rate 0.1250 kg/ha): 7.0; Herbicidal rating ECHORC ([9]; Rate 0.2500 kg/ha): 8.0; Herbicidal rating CYPIR (CYPIR (Rice Flatsedge) [10]; Rate 0.0313 kg/ha): 0.0; Herbicidal rating CYPIR (CYPIR (Rice Flatsedge) [10]; Rate 0.0625 kg/ha): 0.0; Herbicidal rating CYPIR (CYPIR (Rice Flatsedge) [10]; Rate 0.1250 kg/ha): 2.0; Herbicidal rating CYPIR (CYPIR (Rice Flatsedge) [10]; Rate 0.2500 kg/ha): 6.0; Herbicidal rating CYPSE (CYPSE (Flatsedge) [11]; Rate 0.0313 kg/ha): 0.0; Herbicidal rating CYPSE (CYPSE (Flatsedge) [11]; Rate 0.0625 kg/ha): 0.0; Herbicidal rating CYPSE (CYPSE (Flatsedge) [11]; Rate 0.1250 kg/ha): 0.0; Herbicidal rating CYPSE (CYPSE (Flatsedge) [11]; Rate 0.2500 kg/ha): 9.0; Herbicidal rating SAGPY ([12]; Rate 0.0313 kg/ha): 0.0; Herbicidal rating SAGPY ([12]; Rate 0.0625 kg/ha): 0.0; Herbicidal rating SAGPY ([12]; Rate 0.1250 kg/ha): 4.0; Herbicidal rating SAGPY ([12]; Rate 0.2500 kg/ha): 4.0

— patent US20020137929A1, “1 - (3-heterocyclylphenyl) isothiourea, -isourea, -guanidine and -amidine herbicidal agents” (Intellectual Property Department, BASF Aktiengesellschaft, priority 1998, published 2002)
